Data taken from patent US9028831B2, “Markers for selecting personalized therapies for the treatment of cancer” (Fundació Institut de Recerca Hospital Universitari Vall …, priority 2009, dated 2015).
Entries after “also recorded” stand apart in the source; their conditions may differ. Like-named read-outs stand apart in the source and are kept apart here.

How the values were obtained:
parental cells DT40 = assay: Camptothecin-induced apoptosis (subdiploid DNA content, propidium iodide FACS) in parental DT40 cells; assay type: cell-based, Chicken; settings: 15-25 nM, 72 hours
Method: (§1) Chicken parental B cell line DT40, a sub-line where ATPX was interrupted by means of homologous recombination and a derivative line where APTX was re-introduced in the knock-out cells were used (Abel I, et al., Nature 2006; 443: 713-6). Camptothecin-induced apoptosis was evaluated as has been previously described (Arango D, et al., Cancer Res 2001; 61: 4910-5; Arango D, et al., Br J Cancer 2003; 89: 1757-65). Briefly, 2.5×10^5 cells were seeded by triplicate in 6-well Falcon plates (Becton Dickinson) and were left to adhere for 24 hours before sucking out the medium and changing it with fresh medium containing 0, 15 or 25 nM camptothecin (Calbiochem, San Diego, Calif.). After 72 hours of treatment, both the adhered cells and those that floated were collected, they were washed two times with 2 ml of PBS, and resuspended in PBS containing 50 μg/ml propidium iodide, 0.1% sodium citrate, and 0.1% Triton X-100. The cells were stained overnight at 4° C. and the DNA content was analyzed using a cell separator (FACSCalibur; Becton Dickinson). The cell debris were discarded, and the proportion of cells with subdiploid DNA content typical of apoptotic cells was quantified using WinList 2.0 (Verity Software House, Inc.). All the experiments were carried out in triplicate, and the mean from three independent experiments is shown.

[1] = tested on: APTX knock-out cells DT40; assay: Camptothecin-induced apoptosis in DT40 sub-line with APTX inactivated by homologous recombination; assay type: cell-based, Chicken; settings: 15-25 nM, 72 hours, p<0.004
Method: as §1

[2] = tested on: DT40 knock-out cells with APTX re-introduced; assay: Camptothecin-induced apoptosis in DT40 knock-out cells with APTX re-introduced; assay type: cell-based, Chicken; settings: APTX knock-out DT40 cells with APTX reintroduced, 15-25 nM, 72 hours
Method: as §1

[3] = tested on: metastatic colorectal cancer; assay: Response, time to progression and survival of patients receiving irinotecan-based chemotherapy, by tumor aprataxin level; assay type: in vivo, human; settings: for time to progression (TTP) median: irinotecan-based treatment
Method: A total of 135 patients with metastatic colorectal cancer receiving irinotecan-based chemotherapy in Hospital Universitario Vall d'Hebron were included in the study. The response to the chemotherapeutic treatment was evaluated by means of computerized axial tomography (CAT) and a response was considered complete when the complete disappearance of metastatic lesions was observed. […] A lesion size reduction observed by CAT greater than 30% or an increase above 20% were considered as partial response or progressive disease, respectively. The study was conducted according to the research protocols approved by the Clinical Research Ethics Committee.
After the histological examination of tumor sample sections stained with hematoxylin and eosin and fixed with formalin embedded in paraffin, areas containing a large proportion of tumor cells were selected from the 135 patients. Cores of 1.2 mm of tumor samples from each patient were arranged in duplicate in a new paraffin block using an apparatus for preparing tissue matrices from Beecher Instruments (Beecher Instruments, Silver Spring, Md.).
4 μm unstained sections of the tissue microarrays were mounted on slides coated with 3-aminopropyl-triethoxy-silane (Sigma, St. Louis, Mo., USA). The sections were deparaffinized in xylene and rehydrated by means of a gradual series of alcohol and distilled water. The antigen was recovered with preheated 10 mM pH=6 citrate buffer for 20 minutes at 95° C. For the immunohistochemical analysis, the commercial Novolink polymer detection system was used according to the manufacturer's instructions (Novocastra Laboratories; Newcastle, UK). A rabbit anti-aprataxin polyclonal antibody made against the C-terminus end of human aprataxin was used at a dilution 1:100 (4° C. overnight; Aviva Systems Biology Corp.; San Diego, Calif.). The staining was viewed using a solution of 3,3′-diaminobenzidine (DAB) and the sections were counter stained in Mayer's hematoxylin, washed in water, dehydrated through a series of ethanol solution, clarified in xylene and mounted. The aprataxin levels were evaluated without knowing the clinical data. A semi-quantitative scale from 0 to 3 was used to measure the staining intensity. The absence of aprataxin staining was graded as 0 and the low, moderate and high aprataxin levels were graded as 1, 2, and 3, respectively (see FIG. 2A-D). The mean grading of samples in duplicate was used in subsequent analysis.
Survival curves were plotted using Kaplan and Meier method and the survival differences were evaluated using log-rank test. Cox's proportional hazard model was used to evaluate the simultaneous contribution of the following covariables in the overall survival: sex, age, histological grade, and tumor aprataxin levels. Fisher's exact test, Chi-squared test and Mann-Whitney test were used to evaluate the differences between clinicopathological parameters in patients with high and low aprataxin levels (see Table 1). It was considered that the p values of less than 0.05 indicated statistic significant.

SMILES	apoptosis induction (parental cells DT40)	apoptosis induction / sensitization to CPT [1]	CPT resistant phenotype after reintroduction of APTX [2]	Overall survival median [3]	Overall survival median ([3]; Low aprataxin patients)	Overall survival median ([3]; Total patients)	hazard ratio, overall survival ([3]; high vs absent/low aprataxin, 95% CI 1.21-3.63, log-rank p=0.008)	hazard ratio, time to progression ([3]; moderate/high vs absent/low aprataxin, 95% CI 1.04-2.29, log-rank p=0.03)	time to progression (TTP) median ([3]; patients with absence or low aprataxin levels)	time to progression (TTP) median ([3]; patients with moderate or high tumor aprataxin levels)
CC[C@@]1(O)C(=O)OCc2c1cc1n(c2=O)Cc2cc3ccccc3nc2-1 [CPT, camptothecin]	modest apoptosis induction	significantly sensitized; also recorded: significantly increased apoptosis induction	completely reestablished the CPT resistant phenotype; also recorded: fully reestablished the resistant phenotype							
CCc1c2c(nc3ccc(OC(=O)N4CCC(N5CCCCC5)CC4)cc13)-c1cc3c(c(=O)n1C2)COC(=O)[C@]3(O)CC [irinotecan]				19 months	36.7 months	26.3 months	2.1	1.5	9.2 months	5.5 months
